Measurements: patent publication US12576166B2, “Contrast agents for detection of enzyme activities based on melanin synthesis” (BOARD OF REGENTS, THE UNIVERSITY OF TEXAS SYSTEM, priority 2020, dated 2026)

Biological target: cathepsin B (Homo sapiens, UniProt P07858)
Test: Incubation of Agent 6 with cathepsin B; product read by colour, MSOT and absorbance
Format: biochemical
Details: pH 6.8, 37° C., overnight
Procedure: We incubated 2.22 mg/mL ([…], 0.1 mL) of Agent 6 with 2 units of cathepsin B at pH 6.8 and at 37° C. overnight. Although cathepsin B is typically considered to be an endoprotease, this enzyme can work as an exoprotease at lower pH relative to physiological pH 7.4. Also, the extracellular tumor microenvironment is known to be acidic, so that pH 6.8 is a better representation of tumor conditions.
Other samples of were prepared at 1.66, 1.11, 0.84, and 0.55 mg/mL. These solutions were inserted into a customized phantom for a multi spectral optoacoustic imaging instrument (MSOT; also known as photoacoustic imaging) (InVision instrument, iThera Medical). FIG. 12A-FIG. 12D present MSOT or absorbance spectra data for the various concentrations.
The phantoms were imaged at 700-900 nm absorbance wavelengths in 2 nm steps. (FIG. 12A). The samples were also analyzed with a spectrofluorometer with absorbance through the same wavelength range (FIG. 12B), which matched the spectral profile and relative signal intensities of the MSOT spectra. The spectra were broad and featureless, which is expected for a melanin-based product. The signal to noise ratio (SNR) scaled with the concentration of the reactant, providing validation that the MSOT and absorbance signals were derived from the product and was not an artifact of the solution or imaging instrument (FIG. 12C, FIG. 12D).

colour of the resulting solution (indicating melanin produced after cleavage by cathepsin B) (2.22 mg/mL Agent 6, 2 units of cathepsin B): light gray color
SMILES: CC(=O)NC(Cc1ccccc1)C(=O)NC(CCCCN)C(=O)Nc1ccc(COc2cc3cc[nH]c3cc2O)cc1 (centres unmarked) [Agent 6]
cleavage by cathepsin B to a melanin-based product detectable by MSOT (MSOT 700-900 nm, preliminary results): cleaved by cathepsin B to create a melanin-based product that can be detected by MSOT
